Experimental data: patent US20060069132A1, “Azolecarboxamide herbicides” (priority 2004, published 2006)

Columns and labels:
[1] = test system: barnyardgrass; assay: Test B pre-/postemergence herbicide test; format: in vivo, Echinochloa crus-galli; details: for Barnyardgrass plant response rating: postemergence, scale 0 (no effect) to 100 (complete control)
In short: (§1)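 Herbicidal effect was judged by eye on a 0–100 scale after plants stood 13 to 15 days in the greenhouse following pre- or postemergence treatment with surfactant-containing formulations.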

[2] = test system: Surinam grass; assay: Test B pre-/postemergence herbicide test; format: in vivo, Urochloa decumbens; details: for Surinam Grass plant response rating: postemergence, scale 0 (no effect) to 100 (complete control)
In short: (§2)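 Test chemicals in a non-phytotoxic solvent mixture with surfactant were applied preemergence to seeded species and postemergence to plants 2-18 cm tall (1- to 4-leaf stage); rice and barnyardgrass were also tested in a flooded paddy at the 2-leaf stage. Visual rating versus controls after 13-15 days in greenhouse, scale 0 (no effect) to 100 (complete control).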

[3] = test system: wheat; assay: Test B postemergence herbicide test; format: in vivo, Triticum aestivum; design: key to Wheat plant response rating: 0 = no effect, 100 = complete control; details: postemergence, visual rating, scale 0 (no effect) to 100 (complete control)
In short: (§3)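 Visual ratings, 0 (no effect) to 100 (complete control), made versus controls after 13–15 d greenhouse. Paddy plants treated at 2-leaf stage; postemergence plants at 1- to 4-leaf stage, 2–18 cm tall.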

[4] = test system: smallflower umbrella sedge; assay: Test C flooded paddy test; format: in vivo, Cyperus difformis
[5] = test system: blackgrass; assay: Test B postemergence herbicide test; format: in vivo, Alopecurus myosuroides; details: postemergence, visual rating, scale 0 (no effect) to 100 (complete control)
In short: (§4)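 Treated at 2-leaf (paddy) or 1–4-leaf, 2–18 cm (postemergence); greenhouse 13–15 d; visual score vs control, 0 none to 100 complete control; dash = not tested.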

[6] = test system: ducksalad; assay: Test C flooded paddy test; format: in vivo, Heteranthera limosa
[7] = test system: barnyardgrass; assay: Test C flooded paddy test; format: in vivo, Echinochloa crus-galli
In short: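 Injury scored visually against controls on a 0 (no effect) to 100 (complete control) scale, 12 to 14 days after treatment in greenhouse. Flooded paddy plants treated at 2-leaf stage; postemergence plants at 1- to 4-leaf stage, 2 to 18 cm tall.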

[8] = test system: pigweed; assay: Test B pre-/postemergence herbicide test; format: in vivo, Amaranthus retroflexus; details: for Pigweed plant response rating: postemergence, scale 0 (no effect) to 100 (complete control)
In short: as §2

[9] = test system: rice; assay: Test B flooded paddy test; format: in vivo, Oryza sativa; details: 1000 g ai/ha, visual rating, scale 0 to 100 (0 no effect, 100 complete control), 13 to 15 days
In short: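 Paddy species grown to the 2-leaf stage under flooding; blackgrass sprayed postemergence at 2–18 cm (1- to 4-leaf stage). Plants kept in a greenhouse for 13 to 15 days, then visually rated against controls on 0 (no effect) to 100 (complete control).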

[10] = test system: cocklebur; assay: Test B pre-/postemergence herbicide test; format: in vivo, Xanthium strumarium; details: for Cocklebur plant response rating: postemergence, scale 0 (no effect) to 100 (complete control)
In short: as §1

[11] = test system: barnyardgrass; assay: Test B flooded paddy test; format: in vivo, Echinochloa crus-galli; details: 1000 g ai/ha, visual rating, scale 0 to 100 (0 no effect, 100 complete control), 13 to 15 days
In short: as §4

[12] = test system: giant foxtail; assay: Test B pre-/postemergence herbicide test; format: in vivo, Setaria faberi; details: for Foxtail, Giant plant response rating: postemergence, scale 0 (no effect) to 100 (complete control)
In short: as §2

[13] = test system: wild oat; assay: Test B postemergence herbicide test; format: in vivo, Avena fatua; details: postemergence, visual rating, scale 0 (no effect) to 100 (complete control)
In short: as §3

[14] = test system: ducksalad; assay: Test B flooded paddy test; format: in vivo, Heteranthera limosa; details: 1000 g ai/ha, visual rating, scale 0 to 100 (0 no effect, 100 complete control), 13 to 15 days
In short: as §4

[15] = test system: velvetleaf; assay: Test B pre-/postemergence herbicide test; format: in vivo, Abutilon theophrasti; details: for Velvetleaf plant response rating: postemergence, scale 0 (no effect) to 100 (complete control)
In short: as §2

[16] = test system: rice; assay: Test C flooded paddy test; format: in vivo, Oryza sativa
In short: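 Plants were grown to the 1- to 4-leaf stage (2–18 cm) and then treated postemergence, or grown to the 2-leaf stage for the flooded paddy test. They were held in a greenhouse for 12 to 14 days and then scored by eye against controls, where 0 is no effect and 100 is complete control.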

[17] = test system: morningglory; assay: Test B pre-/postemergence herbicide test; format: in vivo, Ipomoea coccinea; details: for Morningglory plant response rating: postemergence, scale 0 (no effect) to 100 (complete control)
In short: as §1

[18] = test system: large crabgrass; assay: Test B pre-/postemergence herbicide test; format: in vivo, Digitaria sanguinalis; details: for Crabgrass, Large plant response rating: postemergence, scale 0 (no effect) to 100 (complete control)
In short: as §2

[19] = test system: rice; assay: Test B pre-/postemergence herbicide test; format: in vivo, Oryza sativa; details: 0 = no effect, 100 = complete control, preemergence
In short: as §2

[20] = test system: lambsquarters; assay: Test B pre-/postemergence herbicide test; format: in vivo, Chenopodium album; details: for Lambsquarters plant response rating: postemergence, scale 0 (no effect) to 100 (complete control)
In short: as §2

[21] = test system: corn; assay: Test B pre-/postemergence herbicide test; format: in vivo, Zea mays; details: for Corn plant response rating: postemergence, scale 0 (no effect) to 100 (complete control)
In short: as §2

[22] = test system: small flower umbrella sedge; assay: Test B flooded paddy test; format: in vivo, Cyperus difformis; details: 1000 g ai/ha, visual rating, scale 0 to 100 (0 no effect, 100 complete control), 13 to 15 days
In short: as §4

[23] = 125 g ai/ha, 0 = no effect, 100 = complete control, preemergence
[24] = 500 g ai/ha, visual rating, 0 = no effect, 100 = complete control, preemergence
[25] = 62 g ai/ha, scale 0 to 100 (0 no effect, 100 complete control)
[26] = 125 g ai/ha, scale 0 to 100 (0 no effect, 100 complete control)
[27] = 250 g ai/ha, scale of 0 to 100, 0 is no effect, 100 is complete control
[28] = 500 g ai/ha, visual rating after 12 to 14 days, scale 0 to 100 (0 no effect, 100 complete control)

Compound: CCc1nc(C(C)(C)C)sc1C(=O)Nc1cccc(C(=O)N(C)CC)c1 [Compound 229]
- Barnyardgrass plant response rating (0 to 100 scale) [1, 23]: 50
- Plant response rating, Barnyardgrass [1, 24]: 90
- Barnyardgrass plant response rating ([1]; 125 g ai/ha, visual rating): 20
- Barnyardgrass plant response rating ([1]; 500 g ai/ha, visual rating): 50
- Surinam Grass plant response rating (0 to 100 scale) [2, 23]: 40
- Plant response rating, Surinam Grass [2, 24]: 80
- Surinam Grass plant response rating ([2]; 125 g ai/ha, visual rating): 10
- Surinam Grass plant response rating ([2]; 500 g ai/ha, visual rating): 20
- Wheat plant response rating ([3]; 125 g ai/ha): 30
- Wheat plant response rating ([3]; 500 g ai/ha): 40
- Sedge, Umbrella plant response rating [4, 25]: 30
- Sedge, Umbrella plant response rating [4, 26]: 40
- Sedge, Umbrella plant response rating [4, 27]: 80
- Plant response rating, Sedge, Umbrella [4, 28]: 80
- Blackgrass plant response rating ([5]; 125 g ai/ha): 30
- Blackgrass plant response rating ([5]; 500 g ai/ha): 30
- Ducksalad plant response rating [6, 25]: 0
- Ducksalad plant response rating [6, 26]: 0
- Ducksalad plant response rating [6, 27]: 80
- Plant response rating, Ducksalad [6, 28]: 85
- Barnyardgrass plant response rating [7, 25]: 40
- Barnyardgrass plant response rating [7, 26]: 45
- Barnyardgrass plant response rating [7, 27]: 75
- Plant response rating, Barnyardgrass [7, 28]: 80
- Pigweed plant response rating (0 to 100 scale) [8, 23]: 100
- Plant response rating, Pigweed [8, 24]: 100
- Pigweed plant response rating ([8]; 125 g ai/ha, visual rating): 60
- Pigweed plant response rating ([8]; 500 g ai/ha, visual rating): 80
- Rice plant response rating [9]: 90
- Cocklebur plant response rating (0 to 100 scale) [10, 23]: 0
- Plant response rating, Cocklebur [10, 24]: 40
- Cocklebur plant response rating ([10]; 125 g ai/ha, visual rating): 20
- Cocklebur plant response rating ([10]; 500 g ai/ha, visual rating): 70
- Barnyardgrass plant response rating [11]: 90
- Foxtail, Giant plant response rating (0 to 100 scale) [12, 23]: 50
- Plant response rating, Foxtail, Giant [12, 24]: 80
- Foxtail, Giant plant response rating ([12]; 125 g ai/ha, visual rating): 30
- Foxtail, Giant plant response rating ([12]; 500 g ai/ha, visual rating): 50
- Oat, Wild plant response rating ([13]; 125 g ai/ha): 30
- Oat, Wild plant response rating ([13]; 500 g ai/ha): 50
- Ducksalad plant response rating [14]: 90
- Velvetleaf plant response rating (0 to 100 scale) [15, 23]: 40
- Plant response rating, Velvetleaf [15, 24]: 100
- Velvetleaf plant response rating ([15]; 125 g ai/ha, visual rating): 60
- Velvetleaf plant response rating ([15]; 500 g ai/ha, visual rating): 70
- Rice plant response rating [16, 25]: 35
- Rice plant response rating [16, 26]: 35
- Rice plant response rating [16, 27]: 80
- Plant response rating, Rice [16, 28]: 90
- Morningglory plant response rating (0 to 100 scale) [17, 23]: 10
- Plant response rating, Morningglory [17, 24]: 20
- Morningglory plant response rating ([17]; 125 g ai/ha, visual rating): 10
- Morningglory plant response rating ([17]; 500 g ai/ha, visual rating): 70
- Crabgrass, Large plant response rating (0 to 100 scale) [18, 23]: 40
- Plant response rating, Crabgrass, Large [18, 24]: 100
- Crabgrass, Large plant response rating ([18]; 125 g ai/ha, visual rating): 10
- Crabgrass, Large plant response rating ([18]; 500 g ai/ha, visual rating): 20
- Rice plant response rating (0 to 100 scale) ([19]; 125 g ai/ha): 30
- Plant response rating, Rice ([19]; 500 g ai/ha, visual rating): 70
- Lambsquarters plant response rating (0 to 100 scale) [20, 23]: 90
- Plant response rating, Lambsquarters [20, 24]: 100
- Lambsquarters plant response rating ([20]; 125 g ai/ha, visual rating): 70
- Lambsquarters plant response rating ([20]; 500 g ai/ha, visual rating): 80
- Corn plant response rating (0 to 100 scale) [21, 23]: 10
- Plant response rating, Corn [21, 24]: 40
- Corn plant response rating ([21]; 125 g ai/ha, visual rating): 10
- Corn plant response rating ([21]; 500 g ai/ha, visual rating): 20
- Sedge, Umbrella plant response rating [22]: 80
